Assay results: patent US9062074B2, “(9E)-15-(2-pyrrolidin-1-yl-ethoxy)-7,12,25-trioxa-19,21,24-triaza-tetracyclo[18.3.1.1(2.5).1(14,18)]hexacosa-1(24),2,4,9,14,16,18(26),20,22-nonaene citrate salt” (CTI BioPharma Corp., priority 2009, dated 2015)
Like-named read-outs stand apart in the source and are kept apart here.

Experiments:
Type in all cases: physicochemical
[1] = Thermogravimetric Analysis (TGA)
Protocol: Thermogravimetric Analysis (TGA) data were collected on a Mettler TGA/SDTA 851e equipped with a 34 position autosampler. The instrument was temperature calibrated using certified indium. Typically 5-30 mg of each sample was loaded onto a pre-weighed aluminium crucible and was heated at 10° C.min^−1 from ambient temperature to 350° C. A nitrogen purge at 50 ml.min^−1 was maintained over the sample. The instrument control and data analysis software was STARe v9.10.

[2] = Phase stability by XRPD after storage at 40° C. and 75% relative humidity for one week; conditions: solid form by low resolution XRPD after one week
Protocol: Condition 2 (Low Resolution)
X-Ray Powder Diffraction patterns were also collected on a Bruker D8 diffractometer using Cu K[…] radiation (40 kV, 40 mA), θ-2θ goniometer, and divergence of V4 and receiving slits, a Ge monochromator and a Lynxeye detector. The instrument is performance checked using a certified Corundum standard (NIST 1976). The software used for data collection was Diffrac Plus XRD Commander v2.5.0 and the data were analysed and presented using Diffrac Plus EVA v 11.0.0.2 or v 13.0.0.2. Samples were run under ambient conditions as flat plate specimens using powder as received. Approximately 15 mg of the sample was gently packed into a cavity cut into polished, zerobackground (510) silicon wafer. The sample was rotated in its own plane during analysis. The details of the data collection are:
The samples which had been prepared for the collection of low resolution XRPD traces were placed in a chamber maintained at 40° C. and 75% relative humidity. After one week the samples were reanalysed by low resolution XRPD (Condition 2), to check for phase changes. It can be seen that no phase change has occurred, and that citrate salts of the invention are stable for at least one week under these conditions.

[3] = Differential Scanning Calorimetry (DSC); conditions: from DSC endotherm shape and TGA weight loss
Protocol: Differential Scanning Calorimetry (DSC) data were collected on a Mettler DSC 823e equipped with a 34 position auto-sampler. The instrument was calibrated for energy and temperature using certified indium. Typically 0.5-3 mg of each sample, in a pin-holed aluminium pan, was heated at 10° C.min^−1 from 25° C. to 350° C. A nitrogen purge at 50 ml.min^−1 was maintained over the sample. The instrument control and data analysis software was STARe v9.10.

[4] = Solubility assessment (solvent added in 10 volume aliquots); conditions: organic solvent or mixture, thermodynamic from solid, read-out: Solubility assessment observation
Protocol: For each solvent investigated, approximately 8 mg of compound 1 was weighed into an 8 ml screw top glass vial. The solvent was added in 10 volume aliquots and the mixture sonicated and warmed (with a hot-air gun) to encourage dissolution. If dissolution was not achieved after the addition of 100 volumes of solvent, a further 100 volumes was added.

Thermogravimetric Analysis weight change ([1]; 160 to 250° C.): −20% w/w 160 to 250 °C
Thermogravimetric Analysis weight change ([1]; ambient to 160° C.): −0.4% w/w ambient to
weight loss in TGA corresponding to DSC thermal event ([1]; at thermal event at 176° C.): ~20%
Phase Stability 1 wk @ 40° C./75% RH [2]: Crystalline Form 1
temperature above which gross degradation is occurring [3]: > 176 °C
solubility ([4]; TBME, TBME, 10 vols): < 100 mg/mL
solubility ([4]; TBME, TBME, 20 vols): < 50 mg/mL
solubility ([4]; TBME, TBME, 30 vols): < 33.3 mg/mL
solubility ([4]; TBME, TBME, 40 vols): < 25 mg/mL
solubility ([4]; TBME, TBME, 50 vols): < 20 mg/mL
solubility ([4]; TBME, TBME, 60 vols): < 16.7 mg/mL
solubility ([4]; TBME, TBME, 70 vols): < 14.3 mg/mL
solubility ([4]; TBME, TBME, 80 vols): < 12.5 mg/mL
solubility ([4]; TBME, TBME, 90 vols): < 11.1 mg/mL
solubility ([4]; TBME, TBME, 100 vols): < 10 mg/mL
solubility ([4]; TBME, TBME, 200 vols): < 5 mg/mL
solubility ([4]; ethyl acetate, Ethyl acetate, 10 vols): < 100 mg/mL
solubility ([4]; ethyl acetate, Ethyl acetate, 20 vols): < 50 mg/mL
solubility ([4]; ethyl acetate, Ethyl acetate, 30 vols): < 33.3 mg/mL
solubility ([4]; ethyl acetate, Ethyl acetate, 40 vols): < 25 mg/mL
solubility ([4]; ethyl acetate, Ethyl acetate, 50 vols): < 20 mg/mL
solubility ([4]; ethyl acetate, Ethyl acetate, 60 vols): < 16.7 mg/mL
solubility ([4]; ethyl acetate, Ethyl acetate, 70 vols): < 14.3 mg/mL
solubility ([4]; ethyl acetate, Ethyl acetate, 80 vols): < 12.5 mg/mL
solubility ([4]; ethyl acetate, Ethyl acetate, 90 vols): < 11.1 mg/mL
solubility ([4]; ethyl acetate, Ethyl acetate, 100 vols): < 10 mg/mL
solubility ([4]; ethyl acetate, Ethyl acetate, 200 vols): < 5 mg/mL
solubility ([4]; i-propyl acetate, i-propyl acetate, 10 vols): < 100 mg/mL
solubility ([4]; i-propyl acetate, i-propyl acetate, 20 vols): < 50 mg/mL
solubility ([4]; i-propyl acetate, i-propyl acetate, 40 vols): < 25 mg/mL
solubility ([4]; i-propyl acetate, i-propyl acetate, 60 vols): < 16.7 mg/mL
solubility ([4]; i-propyl acetate, i-propyl acetate, 80 vols): < 12.5 mg/mL
solubility ([4]; i-propyl acetate, i-propyl acetate, 100 vols): < 10 mg/mL
solubility ([4]; i-propyl acetate, i-propyl acetate, 200 vols): < 5 mg/mL
solubility ([4]; toluene, Toluene, 10 vols): < 100 mg/mL
solubility ([4]; toluene, Toluene, 20 vols): < 50 mg/mL
solubility ([4]; toluene, Toluene, 30 vols): < 33.3 mg/mL
solubility ([4]; toluene, Toluene, 40 vols): < 25 mg/mL
solubility ([4]; toluene, Toluene, 50 vols): < 20 mg/mL
solubility ([4]; toluene, Toluene, 60 vols): < 16.7 mg/mL
solubility ([4]; toluene, Toluene, 70 vols): < 14.3 mg/mL
solubility ([4]; toluene, Toluene, 80 vols): < 12.5 mg/mL
solubility ([4]; toluene, Toluene, 90 vols): < 11.1 mg/mL
solubility ([4]; toluene, Toluene, 100 vols): < 10 mg/mL
solubility ([4]; toluene, Toluene, 200 vols): < 5 mg/mL
SMILES: C1=C2COC/C=C/COCc3cc(ccc3OCCN3CCCC3)Nc3nccc(n3)C(=C1)O2 [Batch 4]
